{
  "source": "patent US20120141390A1",
  "about": "“Natural Preservatives and Antimicrobial Agents” (priority 2007, published 2012)",
  "test_in_all_cases": "Microplate antibacterial assay (optical density at 540 nm)",
  "type_in_all_cases": "cell-based",
  "key": {"[1]": {"tested_on": "Proteus vulgaris ACM 4730", "conditions": "37° C., 22 h; for MIC0: highest concentration with no inhibition of growth; for MIC100: lowest concentration giving 100% inhibition", "experimental": "(§1) Bacterial strains and growth conditions: Test organisms used in the assay were Staphylococcus aureus strain 6571 (NCTC—National Collection of Type Cultures, Health Protection Agency Centre for Infection, London, UK), Streptococcus mutans ACM 969 and Proteus vulgaris ACM 4730, were supplied by the Australian Collection of Microorganisms (ACM), University of Queensland. The test organisms were grown for 24 h in Tryptone Soya Yeast Extract Broth (TSYEB) (Oxoid CM 129B, Basingstoke, UK), 30 g/L; yeast extract (Oxoid CM19), 6 g/L. The inoculum was quantified by measuring the optical density (absorbance) at 540 nm and adjusted to 0.5 absorbance with TSYEB.\n(§2) Preparation and dilution of bacterial strains: An inoculum was prepared by serially diluting (1:1) the overnight culture of the test organisms in TSYEB broth 22 times. The dilutions from 11-22 were used on the 96 well microlitre plate. After the dilutions were made the lowest dilution was plated on Plate Count Agar (Oxoid CM0463) for all the test organisms to confirm the bacterial count.\n(§3) Preparation of Polyphenol Powder from Molasses: the Polyphenol Powder from Molasses (0.1 g) was dissolved in 10 ml of TSYEB. This solution was diluted in TSYEB starting at a concentration of 1% (w/v) and diluted to 0.0005% (w/v).\n(§4) Preparation of Antibiotic Solutions: the Antibiotics Penicillin G and Oxytetracyclin hydrochloride from Sigma-Aldrich (St. Louis, Mo.) were used in this study. 0.01 g each of Penicillin G and Oxytetracyclin were dissolved in 20 ml of TSYEB.\n(§5) The antibiotic solutions of Penicillin G and Oxytetracyclin were diluted in TSYEB (1:1) starting at a concentration of 0.05% (w/v) and diluted to 2.44×10^−5% (w/v).\n(§6) Microplate assay procedure: Flat bottom 96 well sterile microtiter plates with lid to prevent cross contamination (Sarstedt, Nümbrecht, Germany) were used for the study. Each 96 well microtiter plate supported one row of wells containing the medium alone (sterility and negative control). Three rows from the first row of wells contained 1:1 dilutions of test organisms (bacterial controls equivalent to 10^5 cfu/ml in the left most well to 10^2 cfu/ml in the right most well) and the polyphenol solution from molasses highest to the lowest concentration (1% to 0.0005 w/v). Each of the combinations of polyphenol solution and bacterial cells were done in triplicate measurements. The next three rows of wells contained the same number of bacterial dilutions but the polyphenol solution was from the lowest to the highest concentration (0.0005% to 1% w/v). Each of the combinations of polyphenol solution and bacterial cells were done in triplicate measurements. The remaining row contained the same number of bacterial dilutions with growth media and polyphenol solution and was called the positive control. Replicates (n=6) of the positive control with no polyphenol solution was run on a separate plate for test organisms. Each 300 μl well contained 50 μl of inoculum, 150 μL of polyphenol solution. Each negative or sterility control well contained 200 μl of TSYEB broth. Each positive control well contained 50 μl of inoculum, 150 μl of TSYEB broth.\n(§7) Penicillin G and Oxytetracyclin hydrochloride were used as reference standards to determine the sensitivity of test organisms and to compare the antimicrobial activity of the polyphenol solution with that of the antibiotics.\n(§8) Optical density (OD) was determined in a spectrophotometer Sunrise-Basic Tecan (Grödig, Austria) at 540 nm. OD was determined prior to incubation and represents the spectrophotometric reading at time zero (T0). Plates were placed in an incubator at 37° C. and incubated for 22 h. Streptococcus mutans was incubated at 37° C. for 22 and 44 h. The solutions in the plates were mixed using a multichannel pipette to prevent clumping prior to reading the OD in the spectrophotometer after 22 h (T22).\n(§9) Analysis of results: The calculations for Percent Inhibition were based on the study by Casey et al. 2004; Patton et al. 2006. […]"}, "[2]": {"tested_on": "Streptococcus mutans ACM 969", "conditions": "lowest concentration giving 100% inhibition, 37° C., growth extended to 44 h", "experimental": "as §1, §2, §3, §4, §5, §6, §7, §8, §9"}, "[3]": {"tested_on": "Staphylococcus aureus strain 6571", "conditions": "37° C., 22 h; for MIC100: lowest concentration giving 100% inhibition", "experimental": "as §1, §2, §3, §4, §5, §6, §7, §8, §9"}, "[4]": {"conditions": "listed as oxytetracyclin, hydrochloride"}},
  "data": [
    {"smiles": "CC1(C)S[C@@H]2[C@H](NC(=O)Cc3ccccc3)C(=O)N2[C@H]1C(=O)O", "note": "[Penicillin G]", "values": [
      {"measurement": "MIC0", "setting": "[1]", "result": "4.88 × 10^−5 % w/v"},
      {"measurement": "MIC100", "setting": "[1]", "result": "7.81 × 10^−4 % w/v"},
      {"measurement": "MIC100", "setting": "[2]", "result": "<2.44 × 10^−5 % w/v"},
      {"measurement": "MIC0", "setting": "[3]; highest concentration with no inhibition of growth", "result": "<2.44 × 10^−5 % w/v"},
      {"measurement": "MIC100", "setting": "[3]", "result": "9.77 × 10^−5 % w/v"}
    ]},
    {"smiles": "CN(C)[C@@H]1C(O)=C(C(N)=O)C(=O)[C@@]2(O)C(O)=C3C(=O)c4c(O)cccc4[C@@](C)(O)[C@H]3[C@H](O)[C@@H]12.Cl", "note": "[Oxytetracylin, Oxytetracyclin hydrochloride]", "values": [
      {"measurement": "MIC0", "setting": "[1]", "result": "2.44 × 10^−5 % w/v"},
      {"measurement": "MIC100", "setting": "[1]", "result": "7.88 × 10^−4 % w/v"},
      {"measurement": "MIC100", "setting": "[2]; hydrochloride", "result": "<2.44 × 10^−5 % w/v"},
      {"measurement": "MIC100", "setting": "[2]; [4]", "result": "2.44×10^−5 % w/v"},
      {"measurement": "MIC100", "setting": "[3]; hydrochloride", "result": "<2.44 × 10^−5 % w/v"},
      {"measurement": "MIC100", "setting": "[3]; [4]", "result": "2.44×10^−5 % w/v"}
    ]}
  ]
}
